# In patent US20140024613A1, “Methods for Treating HCV” (AbbVie Inc., priority 2012, published 2014):
# What was measured:
# [1] = parameters: species or system HCV patients (human); settings: in vivo
# From the text: Ritonavir-boosted HIV protease inhibitors are associated with increases in serum lipids. See FIG. 1, where LPV refers to lopinavir, “/r” refers to co-administration with ritonavir (e.g., LPV/r refers to lopinavir co-administered with ritonavir). DRV refers to darunavir, ATV refers to atazanavir, FPV refers to fosamprenavir, FTC refers to emtricitabine, TDF refers to tenofovir disoproxil fumarate, […], 3TC refers to lamivudine, TC refers to total cholesterol, and TG refers to total triglycerides. These increase in cholesterol and triglycerides may be related to inhibition of the proteasome, which is involved in degradation of proteins related to lipid metabolism. However, the impact of ritonavir-boosted HCV treatments on lipid levels has not been studied. The purpose of this Example was to examine the lipid levels of HCV patients during 12 weeks of treatment with ritonavir-containing, interferon-free regimens. […]
# Fasting total cholesterol (TC) and triglycerides (TG) were measured at each study visit. The number of subjects with baseline low or normal TC or TG who shifted to high TC or TG were calculated using NCEP cut-offs. Lipid fractions were not measured.
# [2] = known effect of ritonavir, FDA approved Kaletra Drug Label May 2012; cited from earlier work
compound,measurement,setting,value
CC(C)c1nc(CN(C)C(=O)N[C@H](C(=O)N[C@@H](Cc2ccccc2)C[C@H](O)[C@H](Cc2ccccc2)NC(=O)OCc2cncs2)C(C)C)cs1 [ritonavir],total cholesterol and triglyceride levels,[1],not elevated
same,cholesterol and triglyceride levels,[2],elevated cholesterol and triglyceride levels
